US7087626B2, “Pyrrole derivatives as pharmaceutical agents” (Eli Lilly and Company, priority 2001, dated 2006)
pIC50: −log10 of the molar value. Structures can show the parent of a compound that is named as a salt.

What follows are molecules tested against T1, KDR (VEGFR2) (Homo sapiens, UniProt P35968) (assay: KDR (VEGFR2) in vitro kinase assay). Details: 1 ug enzyme, 1 uM ATP, 30° C., 20 min.
T1 construct: The 6×-HIS tagged cytoplasmic kinase domain of KDR was expressed and purified from Sf9 insect cell lysates; 6xHis; made in house; host or cells: Sf9 insect cells
Type: biochemical
Method: KDR (VEGFR2) Purification and in vitro Kinase Assay
The 6×-HIS tagged cytoplasmic kinase domain of KDR was expressed and purified from Sf9 insect cell lysates as described above with the following modification:
1× kinase buffer for chromatography washes and elution was changed to 100 mM HEPES pH 7.5, 10 mM MnCl2 and 5 mM β-mercaptoethanol. The resulting material was approximately 40% pure and had tyrosine autophosphorylation activity.
Reactions: 1 ug enzyme in 1×KB, compound dilution series in 1×KB/16% DMSO (20 uM to 1 nM final concentration with 4% DMSO final concentration), reactions were started by adding ATP mix (1 uM ATP/1 uCi ^33P-[…]-ATP final concentrations) in 1×KB.
Reactions were incubated at 30° C. for 20 min. The reactions were stopped and quantitated using standard TCA/BSA precipitation onto Millipore FC glass fiber filter plates and by liquid scintillation counting on a MicroBeta JET.

T1 sequence (P35968 834-1162 limits assumed, species assumed): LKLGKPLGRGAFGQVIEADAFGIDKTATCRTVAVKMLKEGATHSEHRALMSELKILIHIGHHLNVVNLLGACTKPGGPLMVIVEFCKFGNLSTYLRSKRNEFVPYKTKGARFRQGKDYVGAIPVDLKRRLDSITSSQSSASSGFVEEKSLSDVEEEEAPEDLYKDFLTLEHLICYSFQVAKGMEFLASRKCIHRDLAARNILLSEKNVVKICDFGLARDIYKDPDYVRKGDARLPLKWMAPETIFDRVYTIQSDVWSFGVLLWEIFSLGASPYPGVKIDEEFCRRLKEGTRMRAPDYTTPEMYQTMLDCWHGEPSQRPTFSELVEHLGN

pIC50, > 4.70:
NCCCOc1ccc2c(-c3c(-c4ccccn4)nn4c3CCC4)ccnc2c1 [3-[4-(2-pyridin-2-yl-5,6-dihydro-4H-pyrrolo[1,2-b]pyrazol-3-yl)-quinolin-7-yloxy]-propylamine]
c1ccc(-c2nn3c(c2-c2ccnc4cc(OCCCn5ccnn5)ccc24)CCC3)nc1 [4-(2-Pyridin-2-yl-5,6-dihydro-4H-pyrrolo[1,2-b]pyrazol-3-yl)-7-(3-[1,2,3]triazol-1-yl-propoxy)-quinoline]
c1ccc(-c2nn3c(c2-c2ccnc4cc(OCCCN5CCCC5)ccc24)CCC3)nc1 [4-(2-Pyridin-2-yl-5,6-dihydro-4H-pyrrolo[1,2-b]pyrazol-3-yl)-7-(3-pyrrolidin-1-yl-propoxy)-quinoline]
Oc1ccc2c(-c3c(-c4ccccn4)nn4c3CCC4)ccnc2c1 [4-(2-Pyridin-2-yl-5,6-dihydro-4H-pyrrolo[1,2-b]pyrazol-3-yl)-quinolin-7-ol]
CC(=O)NCCNC(=O)c1ccc2c(-c3c(-c4ccccn4)nn4c3CCC4)ccnc2c1 [4-(2-Pyridin-2-yl-5,6-dihydro-4H-pyrrolo[1,2-b]pyrazol-3-yl)-quinoline-7-carboxylic acid (2-acetylamino-ethyl)-amide]
c1ccc(-c2nn3c(c2-c2ccnc4ccccc24)OCC3)nc1 [4-(6-Pyridin-2-yl-2,3-dihydro-pyrazolo[5,1-b]oxazol-7-yl)-quinoline dioxylate salt]
Cc1cccc(-c2nn3c(c2-c2ccnc4cc(OCCCN5CCOCC5)ccc24)CCC3)n1 [4-[2-(6-Methyl-pyridin-2-yl)-5,6-dihydro-4H-pyrrolo[1,2-b]pyrazol-3-yl]-7-(3-morpholin-4-yl-propoxy)-quinoline]
Cc1cccc(-c2nn3c(c2-c2ccnc4cc(C(=O)NCCCN(C)C)ccc24)CCC3)n1 [4-[2-(6-Methyl-pyridin-2-yl)-5,6-dihydro-4H-pyrrolo[1,2-b]pyrazol-3-yl]-quinoline-7-carboxylic acid (3-dimethylamino-propyl)-amide]
COC(=O)c1ccc2c(-c3c(-c4cccc(C)n4)nn4c3CCC4)ccnc2c1 [4-[2-(6-Methyl-pyridin-2-yl)-5,6-dihydro-4H-pyrrolo[1,2-b]pyrazol-3-yl]-quinoline-7-carboxylic acid methyl ester]
CN(CCCOc1ccc2c(-c3c(-c4ccccn4)nn4c3CCC4)ccnc2c1)Cc1ccccc1 [Benzyl-methyl-{3-[4-(2-pyridin-2-yl-5,6-dihydro-4H-pyrrolo[1,2-b]pyrazol-3-yl)-quinolin-7-yloxy]-propyl}-amine]
CCN(CC)CCCOc1ccc2c(-c3c(-c4cccc(C)n4)nn4c3CCC4)ccnc2c1 [Diethyl-(3-{4-[2-(6-methyl-pyridin-2-yl)-5,6-dihydro-4H-pyrrolo[1,2-b]pyrazol-3-yl]-quinolin-7-yloxy}-propyl)-amine]
CN(C)C(=O)c1cccc(Oc2ccc3c(-c4c(-c5ccccn5)nn5c4CCC5)ccnc3c2)c1 [N,N-Dimethyl-3-[4-(2-pyridin-2-yl-5,6-dihydro-4H-pyrrolo[1,2-b]pyrazol-3-yl)-quinolin-7-yloxy]-benzamide]

Each molecule was assayed against T2, TGF-β Type I (RIT204D) receptor (Homo sapiens, UniProt P36897, T204D) (assay: TGF-β Receptor I (RIT204D) in vitro kinase reaction). Details: 6×-HIS cytoplasmic kinase domain, 4 uM ATP, 30° C., 1 hr.
T2 construct: The 6×-HIS tagged cytoplasmic kinase domain of each receptor was expressed and purified from Sf9 insect cell lysates; 6xHis; made in house; host or cells: Sf9 insect cells
T2 sequence (P36897 148-503 T204D limits assumed): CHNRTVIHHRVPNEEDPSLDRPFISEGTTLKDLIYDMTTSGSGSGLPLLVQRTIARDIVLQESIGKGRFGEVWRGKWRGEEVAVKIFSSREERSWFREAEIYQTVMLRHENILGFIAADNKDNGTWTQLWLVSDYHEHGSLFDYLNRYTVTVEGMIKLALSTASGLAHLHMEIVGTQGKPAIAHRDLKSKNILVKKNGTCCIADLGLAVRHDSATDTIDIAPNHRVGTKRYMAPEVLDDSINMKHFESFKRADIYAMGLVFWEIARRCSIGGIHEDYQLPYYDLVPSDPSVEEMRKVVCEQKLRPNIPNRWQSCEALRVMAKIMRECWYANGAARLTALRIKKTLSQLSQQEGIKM
Type: biochemical
Method: TGF-β Receptor I and II Purification and in vitro Kinase Reactions
For TGF-β Type I (RIT204D) and Type II (RII WT) Receptors: The 6×-HIS tagged cytoplasmic kinase domain of each receptor was expressed and purified from Sf9 insect cell lysates as briefly described below:
Cell pellets after 48-72 hrs of infection were lysed in lysis buffer (LB: 50 mM Tris pH 7.5, 150 mM NaCl, 50 mM NaF, 0.5% NP40 with freshly added 20 mM, β-mercaptoethanol, 10 mM imidazole, 1 mM PMSF, 1×EDTA-free Complete Protease Inhibitor (Boehringer Mannheim).
Reactions: 170-200 nM enzyme in 1×KB, compound dilution series in 1×KB/16% DMSO (20 uM to 1 nM final concentration with 4% DMSO final concentration), reactions started by adding ATP mix (4 uM ATP/1 uCi ^33P-[…]-ATP final concentrations) in 1×KB.
Reactions were incubated at 30° C. for 1 hr RIT204D or 40 min for RII WT. Reactions were stopped and quantitated using standard TCA/BSA precipitation onto Millipore FB glass fiber filter plates and by liquid scintillation counting on a MicroBeta JET.

pIC50, > 4.70:
CN(C)C(=O)c1cccc(Oc2ccc3c(-c4c(-c5ccccn5)nn5c4CCC5)ccnc3c2)c1 [N,N-Dimethyl-3-[4-(2-pyridin-2-yl-5,6-dihydro-4H-pyrrolo[1,2-b]pyrazol-3-yl)-quinolin-7-yloxy]-benzamide]

These molecules were tested on TGF-β dependent luciferase production in Mv1Lu C1 cells (p3TP-Lux reporter) (assay: MV1LU p3TP-Lux assay). Details: TGF-β1 10 pM, 16-20 hrs.
Type: cell-based
From the text: A stable Mv1Lu clone (C1) containing the p3TP-Lux reporter was created by standard transfection and puromycin selection protocols. This stable clone was used to screen the example compounds for their ability to inhibit TGF-β dependent luciferase production as briefly described below: • 1. Plated Mv1Lu C1 cells in Wallac™ Black Isoplates • 2. Allowed cells to adhere overnight. • 3. Removed media and replaced with 0.5% FBS DMEM media • 4. Added the compound dilution series in 0.5% FBS/DMEM containing 1% DMSO such that the final compound concentration ranged from 20 uM to 0.1 nM and the final DMSO concentration was 0.2%. • 5. Incubated at 37° C./5% CO2 for 2 hrs. • 6. Added 0.5% FBS/DMEM as control or TGF-β1 diluted in 0.5% FBS/DMEM (final concentration of 10 pM) to the −/+ TGF-β wells respectively • 7. Incubated for 16-20 hrs. at 37° C./5% CO2 • 8. Removed media and rinsed 1× with PBS. • 9. Removed PBS and lysed the cells with 1× Passive Lysis Buffer (Promega) at room temperature. • 10. Counted relative luciferase activity on the MicroBeta JET by injecting Luciferase Assay Reagent II (PROMEGA).
The use of the above assay in measuring TGF-β responsive activity is described in Wrana, et al. Cell 71: 1003-1014 (1992).

pIC50, > 4.70:
NNC(=O)c1ccc2nccc(-c3c(-c4ccccn4)nn4c3CCC4)c2c1 [4-(2-Pyridin-2-yl-5,6-dihydro-4H-pyrrolo[1,2-b]pyrazol-3-yl)-quinoline-6-carboxylic acid hydrazide]
OCC1CCc2c(-c3ccnc4ccccc34)c(-c3ccccn3)nn21 (centres unmarked) [4-(6-Hydroxymethyl-2-pyridin-2-yl-5,6-dihydro-4H-pyrrolo[1,2-b]pyrazol-3yl)-quinoline]
COC(=O)c1ccc2nccc(-c3c(-c4cccc(C)n4)nn4c3CCC4)c2c1 [4-[2-(6-Methyl-pyridin-2-yl)-5,6-dihydro-4H-pyrrolo[1,2-b]pyrazol-3-yl]-quinoline-6-carboxylic acid methyl ester]
Cc1cccc(-c2nn3c(c2-c2ccc(F)cc2)CC(c2ccc(Cl)cc2)C3)n1 (centres unmarked) [5-(4-Chloro-phenyl)-3-(4-fluoro-phenyl)-2-(6-methyl-pyridin-2-yl)-5,6-dihydro-4H-pyrrolo[1,2-b]pyrazole]
Cc1cccc(-c2nn3c(c2-c2ccnc4ccc(-c5ccc6c(c5)OCO6)cc24)CCC3)n1 [6-Benzo[1,3]dioxol-5-yl-4-[2-(6-methyl-pyridin-2-yl)-5,6-dihydro-4H-pyrrolo[1,2-b]pyrazol-3-yl]-quinoline]
c1ccc(-c2nn3c(c2-c2ccnc4cc(OCCCN5CCCCCC5)ccc24)CCC3)nc1 [7-(3-azepan-1-yl-propoxy)-4-(2-pyridin-2-yl-5,6-dihydro-4H-pyrrolo[1,2-b]pyrazol-3-yl)-quinoline]
Cc1cccc(-c2nn3c(c2-c2ccnc4cc(OCCCCl)ccc24)CCC3)n1 [7-(3-chloro-propoxy)-4-[2-(6-methyl-pyridin-2-yl)-5,6-dihydro-4H-pyrrolo[1,2-b]pyrazol-3-yl]-quinoline]
Cc1cccc(-c2nn3c(c2-c2ccnc4c(F)cccc24)CCC3)n1 [8-Fluoro-4-[2-(6-methyl-pyridin-2-yl)-5,6-dihydro-4H-pyrrolo[1,2-b]pyrazol-3-yl]-quinoline]
Cc1cccc(-c2nn3c(c2-c2ccnc4cc(CCC(=O)N(C)C)ccc24)CCC3)n1 [N,N-Dimethyl-3-{4-[2-(6-methyl-pyridin-2-yl)-5,6-dihydro-4H-pyrrolo[1,2-b]pyrazol-3-yl]-quinolin-7-yl}-propionamide]
OCc1cccc(-c2nn3c(c2-c2ccnc4ccccc24)CCC3)n1 [[6-(3-Quinolin-4-yl-5,6-dihydro-4H-pyrrolo[1,2-b]pyrazol-2-yl)-pyridin-2-yl]-methanol]
